The record followed here is patent publication US20050014706A1, “Method of treating tuberculosis” (priority 2003, published 2005).

In brackets after ≈: the same amount, converted by molar mass. Where two headings read alike, the source gives them in different places.

The subject of one series is M. tuberculosis H37Rv. Kind of series: MIC vs. M. tuberculosis H37Rv, microplate Alamar Blue assay (MABA). It is filed as cell-based. The settings on record: for MIC / activity vs. M. tuberculosis in words: in vitro. (Resazurin is reduced to fluorescent resorufin, in cell work by metabolically active cells.)
Series [1] has as its system J774.1 macrophage cell line. Kind of series: Cytotoxicity against J774.1 macrophage cell line. Type of series: cell-based, murine.
For the next series, the system named is VERO cells. Kind of series: Cytotoxicity against VERO cells (MTS, 72 hours). The note with it: for IC50: read-out: Vero IC50 (toxicity); for toxicity / cytotoxicity in words: in vitro study.
A further series relates to M. tuberculosis Erdman. Type of series: in vivo, BALB/c mice. The settings on record: […]; 100 and 200 mg/kg qd (RU60887 100 mg/kg only).
The nature of series [2]: Overt toxicity in mice, escalating 5-day cycles. Type of series: in vivo, Balb/C mice. The note with it: once daily 5-day cycles, sequentially 200, 300, 400, 500 mg/kg. As for the experimental part: Prior to assessing in vivo efficacy, RU66252 and RU69874 were administered to pairs of female Balb/C mice once daily for 5-day cycles, and observed for overt signs of toxicity (e.g., weight loss, ruffled fur, and huddling), after which the mice were rested for 1 or 2 days. Then the dosage was increased for another 5-day cycle. Overall, the same mice received sequentially for 5 days: 200, 300, 400, and 500 mg/kg.

The mark [3] stands for this setting: Table 1a, 11,12-carbamate derivatives, read-out: Anti-TB Activity MIC.
[4] abbreviates: Mycobacterium tuberculosis, H37RV, Table 1a, 11,12-carbamate derivatives, read-out: Anti-TB Activity MIC.
[5] abbreviates: Mycobacterium tuberculosis, H37RV, read-out: minimum inhibitory concentration (MIC) against M. tuberculosis.
The mark [6] stands for this setting: Mus musculus, J774.1, Table 1a, J774 cells, read-out: J774 IC50 (toxicity).
[7] abbreviates: Table 2a, 11,12-diols, read-out: Anti-TB Activity MIC.

`CC[C@H]1OC(=O)[C@H](C)[C@@H](O[C@H]2CC(C)(OC)[C@@H](O)[C@H](C)O2)[C@H](C)[C@@H](O[C@@H]2O[C@H](C)C[C@H](N(C)C)[C@H]2O)[C@](C)(OC)C[C@@H](C)C(=O)[C@H](C)[C@H]2N(CCCCc3ccnc4ccccc34)C(=O)O[C@]12C` (some centres unmarked) [RU66080]: the MIC in the series with M. tuberculosis H37Rv (setting [3]) is 0.44 µM (≈ 0.421 µg/mL). Besides, the IC50 in series [1] (Table 1a, J774 cells, read-out: J774 IC50 (toxicity)) was 4.95 µM; in the series on VERO cells (Table 1a, Vero cells) it was 8.1 µM.

As to `CC[C@H]1OC(=O)[C@H](C)[C@@H](O[C@H]2C[C@@](C)(OC)[C@@H](O)[C@H](C)O2)[C@H](C)[C@@H](O[C@@H]2O[C@H](C)C[C@H](N(C)C)[C@H]2O)[C@](C)(OC)C[C@@H](C)C(=O)[C@H](C)[C@H]2N(CCCCn3cnc(-c4cccnc4)c3)C(=O)O[C@]12C` [RU69874], the MIC in the series on M. tuberculosis H37Rv (setting [4]) and in the series on M. tuberculosis H37Rv (setting [5]) was 0.38 µM (≈ 0.369 µg/mL) in each case. Further, in the series on M. tuberculosis H37Rv, the “MIC / activity vs. M. tuberculosis in words” value is on record as “very low”. Also, the “enhancement in potency of macrolide over counterpart ketolide” value in the series on M. tuberculosis H37Rv (vs. telithromycin, RU004, RU56006 respectively) amounted to 126 fold. Further, the “selectivity index (SI)” value in series [1] (J774 cells) stood at 154. For the same molecule, the IC50 in series [1] (setting [6]) came to 58.6 µM; in series [1] (Mus musculus, J774.1, based on J774 cells, read-out: toxicity), 59 µM; in the series on VERO cells (Chlorocebus sabaeus, Vero) it was 27 µM. Besides, the “activity against M. tuberculosis in the acute phase of infection” value in the series on M. tuberculosis Erdman was “less activity”. Further, in series [2], the “overt signs of toxicity (weight loss, ruffled fur, huddling)” value is “No signs of overt toxicity”. Also, the “toxicity / cytotoxicity in words” value with VERO cells was “comparable to clarithromycin”.

For the molecule “cethromycin [ABT773, reference compound]”, the “MIC against M. tuberculosis” value in the series on M. tuberculosis H37Rv was determined as 3 µM. For the same molecule, in the series on M. tuberculosis H37Rv (setting [3]), the MIC was 3 µM. Moreover, in the series on VERO cells (Table 1a, Vero cells), the IC50 is above 105 µM.

For `CO[C@H]1/C=C/O[C@@]2(C)Oc3c(C)c(O)c4c(O)c(c(/C=N/N5CCN(C)CC5)c(O)c4c3C2=O)NC(=O)/C(C)=C\C=C\[C@H](C)[C@H](O)[C@@H](C)[C@@H](O)[C@@H](C)[C@H](OC(C)=O)[C@@H]1C` [RMP, Rifampin, reference compound], the MIC with M. tuberculosis H37Rv (setting [4]) worked out at 0.076 µM (≈ 0.0625 µg/mL). Besides, the IC50 was 32.7 µM in series [1] (setting [6]) and 46.7 µM with VERO cells (Chlorocebus sabaeus, Vero).

Regarding `CCCCCCCCCCN1CCCC(O/N=C2\[C@H](C)C[C@@](C)(OC)[C@H](O[C@@H]3O[C@H](C)C[C@H](N(C)C)[C@H]3O)[C@@H](C)C(=O)[C@@H](C)C(=O)O[C@H](CC)[C@@](C)(O)[C@H](O)[C@H]2C)C1` (some centres unmarked) [RU60887], the MIC in the series with M. tuberculosis H37Rv (Mycobacterium tuberculosis, H37RV, Table 2a, 11,12-diols, read-out: Anti-TB Activity MIC) was 0.125 µM (≈ 0.103 µg/mL); in the series on M. tuberculosis H37Rv (setting [5]), 0.12 µM (≈ 0.0991 µg/mL). The “MIC / activity vs. M. tuberculosis in words” value in the series with M. tuberculosis H37Rv is on record as “very low”. Besides, the IC50 in series [1] (Mus musculus, J774.1, Table 2a, J774 cells, read-out: J774 IC50 (toxicity)) stood at 4.7 µM; in the series on VERO cells (Chlorocebus sabaeus, Vero) it was 27.6 µM. In addition, the “activity against M. tuberculosis in the acute phase of infection” value with M. tuberculosis Erdman is “less activity”. The “toxicity / cytotoxicity in words” value with VERO cells is “comparable to clarithromycin”.

As for `CC[C@H]1OC(=O)[C@H](C)C(=O)[C@H](C)[C@@H](O[C@@H]2O[C@H](C)C[C@H](N(C)C)[C@H]2O)[C@](C)(OC)C[C@@H](C)C(=NOC2CCCN(C/C=C/c3ccc(-c4ccccc4)cc3)C2)[C@H](C)[C@@H](O)[C@]1(C)O` (some centres unmarked) [RU61804], the MIC in the series with M. tuberculosis H37Rv (setting [7]) is 0.5 µM (≈ 0.439 µg/mL). The IC50 was found to be 3.9 µM in series [1] (Table 2a, J774 cells, read-out: J774 IC50 (toxicity)) and 9.12 µM in the series with VERO cells (Table 2a, Vero cells).

For `CC[C@H]1OC(=O)[C@H](C)[C@@H](O[C@H]2C[C@@](C)(OC)[C@@H](O)[C@H](C)O2)[C@H](C)[C@@H](O[C@@H]2O[C@H](C)C[C@H](N(C)C)[C@H]2O)[C@](C)(O)C[C@@H](C)/C(=N\OCOCc2ccccc2)[C@H](C)[C@@H](O)[C@]1(C)O` [RU29558], in the series on M. tuberculosis H37Rv (setting [7]), the MIC came out at 7 µM (≈ 6.08 µg/mL). Moreover, in the series with VERO cells (Table 2a, Vero cells), the IC50 came out at 28.2 µM.
